In US12115172B2, “Sulfate-free cleansing composition that confers high salicylic acid deposition” (L'OREAL, priority 2021, dated 2024):

Assay: HLB value of the surfactant
Type: physicochemical
Details: of the 30% anionic surfactant used in the composition
Source text: The term “Hydrophilic-Lipophilic Balance” or “HLB,” refers to an empirical expression for the relationship of the hydrophilic and hydrophobic groups of an emulsifier. This term is well known to those skilled in the art. See, e.g., “The HLB system.

Compound	HLB VALUE
CCCCCCCCCCCCOS(=O)(=O)[O-].[Na+] [SODIUM LAURYL SULFATE]	40.1
DECYL GLUCOSIDE (APGS)	13
SODIUM COCOYL GLYCINATE	14
SODIUM LAUROYL SARCOSINATE	29.8
